Assay results: patent US8779132B2, “Pharmaceutical compounds” (Astex Therapeutics Limited, priority 2006, dated 2014)
Counter-ions that a name gives are not always drawn.

Key:
[1] = tested on: HCT116 cell line; assay: Anti-proliferative activity, Alamar Blue assay; format: cell-based; conditions: Homo sapiens, HCT-116, 72 h
Description: The anti-proliferative activities of compounds of the invention can be determined by measuring the ability of the compounds to inhibition of cell growth in a number of cell lines such as the human colon cancer cell line HCT116. […] The method is based on the ability of viable cells to reduce resazurin to its fluorescent product resorufin. […] The number of viable cells is determined by Alamar Blue assay as before. Cell lines can be obtained from the ECACC (European Collection of cell Cultures).

[2] = Plasma stability studies; format: in vitro ADME; conditions: mouse plasma, 37° C., approximately 1 hour
Description: The ease with which pro-drug compounds of the invention can be converted to the active moiety can be assessed by measuring the in vitro plasma stability of the compounds. The method is based on the ability of plasma enzymes to metabolise compounds to the active moiety. Compounds are added to plasma and incubated at 37° C. for approximately 1 hour. Aliquots of plasma are removed at timed intervals and the compound extracted by the addition of acetonitrile containing an internal standard. All extracts are then analysed for parent compound, the active moiety and the internal standard using a compound specific LCMS-MS assay. Stability is measured by comparison of the peak area ratio of the parent compound and internal standard at time zero with the peak area ratio of the parent compound and internal standard in the incubated samples. Generation of the active moiety in samples is also assessed.

CC(C)c1cc(C(=O)N2Cc3ccccc3C2)c(O)cc1O [Example 5, (1,3-Dihydro-isoindol-2-yl)-(2,4-dihydroxy-5-isopropyl-phenyl)-methanone]
IC50 [1]: < 1 µM

CC(C)c1cc(C(=O)N2Cc3ccc(N4CCN(C)CC4)cc3C2)c(OC(=O)N(C)C)cc1OC(=O)N(C)C [Example 86, dimethyl-carbamic acid 5-dimethylcarbamoyloxy-2-isopropyl-4-[5-(4-methyl-piperazin-1-yl)-1,3-dihydro-isoindole-2-carbonyl]-phenyl ester]
generation of the active moiety (2,4-dihydroxy-5-isopropyl-phenyl)-[5-(4-methyl-piperazin-1-yl)-1,3-dihydro-isoindol-2-yl]-methanone [2]: formed the active moiety
in vitro plasma stability [2]: range of stabilities

CC(C)c1cc(C(=O)N2Cc3ccc(C(=O)N4CCNCC4)cc3C2)c(O)cc1O [Example 54, (2,4-dihydroxy-5-isopropyl-phenyl)-[5-(piperazine-1-carbonyl)-1,3-dihydro-isoindol-2-yl]-methanone hydrochloride]
IC50 [1]: < 1 µM

CC(C)c1cc(C(=O)N2Cc3ccc(N4CCN(C)CC4)cc3C2)c(OC(=O)C(C)(C)C)cc1OC(=O)C(C)(C)C [Example 85, 2,2-dimethyl-propionic acid 5-(2,2-dimethyl-propionyloxy)-4-isopropyl-2-[5-(4-methyl-piperazin-1-yl)-1,3-dihydro-isoindole-2-carbonyl]-phenyl ester]
generation of the active moiety (2,4-dihydroxy-5-isopropyl-phenyl)-[5-(4-methyl-piperazin-1-yl)-1,3-dihydro-isoindol-2-yl]-methanone [2]: formed the active moiety
in vitro plasma stability [2]: range of stabilities

CC(=O)Oc1cc(OC(C)=O)c(C(C)C)cc1C(=O)N1Cc2ccc(N3CCN(C)CC3)cc2C1 [Example 84, acetic acid 5-acetoxy-4-isopropyl-2-[5-(4-methyl-piperazin-1-yl)-1,3-dihydro-isoindole-2-carbonyl]-phenyl ester]
generation of the active moiety (2,4-dihydroxy-5-isopropyl-phenyl)-[5-(4-methyl-piperazin-1-yl)-1,3-dihydro-isoindol-2-yl]-methanone [2]: formed the active moiety
in vitro plasma stability [2]: range of stabilities
